Test [1] concerns Pleurotus ostreatus versatile peroxidase VP5, designed variant 5H, SEQ ID NO: 1 (wild type SEQ ID NO: 4; mutations A11S, V15T, A17S, A19E, P26D, D38G, A40Q …). As to the method:
(§1) VPs production and purification. A colony from S. cerevisiae clone containing the VP gene (5H, 8H, 11H, VPL_R4, VPL_2-1B) was picked from an SC drop-out plate, inoculated in 25 mL minimal medium in a 250 flask, and incubated for 48 hours at 30° C. and 225 rpm. An aliquot of cells was removed and used to inoculate 100 mL of minimal medium in a 1 L flask to an OD600 nm of 0.25-0.30, under the same conditions. The cells completed two growth phases (8-10 hours, reaching OD600 nm˜1-1.5), then the expression medium (450 mL) was inoculated with 50 mL of the pre-culture in a 2 L flask (OD600 nm˜0.1). Cells were incubated for a further ˜60 hours at 30° C. and 225 rpm. Thereafter, cells were centrifuged at 6000 g for 15 min at 4° C., and the supernatant was collected and filtered with a 0.2 μm filter bottle.
Filtrates were subjected to fractional precipitation with ammonium sulfate in two steps: first cut of 50%, followed by centrifugation and elimination of the precipitates, and the second cut of 70%. […] Protein concentration was determined using the BCA assay with bovine serum albumin as a standard.
pH activity profiles. […] The activities were recorded in triplicate. […] For manganese, the reaction mixtures contained 60 mM MnSO4 in 100 mM sodium tartrate buffer (pH 3, 3.5, 4, 4.5, 5) and 0.1 mM H2O2, and the Mn^3+-tartrate complex absorption was read at 238 nm. […]

For test [2], the system named is Ganoderma sp. 10597_SS1 versatile peroxidase VP8, designed variant 8H, SEQ ID NO: 2 (wild type SEQ ID NO: 5; mutations R4P, M5S, E34T, G59A, T65W, A67Q, V85I …). It is filed as biochemical. Particulars: for Kcat / Kcat/KM / Km: 25° C. As to the method:
as §1
(§2) Filtrates were subjected to fractional precipitation with ammonium sulfate in two steps: first cut of 50%, followed by centrifugation and elimination of the precipitates, and the second cut of 70%. Buffer A was used to dissolve the pellet, and the dissolved protein solution was shaken overnight at 4° C. for maximal recovery. The dissolved fraction was then centrifuged, filtrated, concentrated, and subjected to overnight dialysis against buffer A. Filtered fractions of the VP proteins after dialysis were uploaded into a HiTrap™ Q HP Column (GE Healthcare Bio-Sciences AB, Uppsala, Sweden) pre-equilibrated with buffer A, through ÄKTA pure protein purification system (GE Healthcare Bio-Sciences AB). Proteins were eluted in a two-step linear gradient from 0 to 1 M NaCl, at a flow rate of 1 ml/min: the first phase of 0-25% over 15 column volumes (75 min) and second phase of 25-100% over 2 column volumes (10 min). The fractions of the peak with the highest VP activity (and absorption at 407 nm) were pooled, concentrated, and dialyzed against 20 mM piperazine buffer pH=5.5 and 150 mM NaCl (buffer B). Protein fractions were then uploaded onto a Superdex 75 Increase 10/300 GL (GE Healthcare Bio-Sciences AB) through the ÄKTA pure system pre-equilibrated with buffer B. The fractions of the peak with the highest VP activity (and absorption at 407 nm) were pooled and dialyzed against buffer A. Pure protein samples were stored at 4° C. Protein concentration was determined using the BCA assay with bovine serum albumin as a standard.
(§3) pH activity profiles. For purified 5H, 8H, 11H, and R4, 20 μL protein samples (diluted in buffer A) were transferred into activity 96 plates (in the case of VA and MnSO4, UV-Star plates; Greiner Bio-One GmbH, Kremsmünster, Austria) and then, 180 μL of the reaction mixture were added to each row in the plate, and absorption at the appropriate wavelength (substrate-dependent) was recorded immediately in a kinetic mode in a plate-reader at 25° C. The reaction mixtures contained a specific substrate in 100 mM citrate-phosphate-borate buffer (pH 2, 3, 3.5, 4, 5, 6, 7, 8) and 0.1 mM H2O2. The activities were recorded in triplicate. The following substrate concentrations and absorption wavelengths were used: ABTS: 2 mM, 418 nm; DMP: 5 mM, 469 nm; RB5: 0.05 mM, 598 nm; VA: 30 mM, 310 nm. For manganese, the reaction mixtures contained 60 mM MnSO4 in 100 mM sodium tartrate buffer (pH 3, 3.5, 4, 4.5, 5) and 0.1 mM H2O2, and the Mn^3+-tartrate complex absorption was read at 238 nm. For each protein and substrate, the activities were normalized to the activity at optimal pH for residual activity calculations. Each activity assay was conducted in triplicate.
(§4) Kinetic parameters. Steady-state kinetics were determined for 5H, 8H, 11H and R4, by measuring the activity (initial rates) in increasing concentrations of the substrate, and the KM and Kcat values were calculated by fitting the results to the Michaelis-Menten model (V0=KcatES/(KM+S)).

Test [3] deals with Pleurotus eryngii versatile peroxidase VPL, variant R4 (VPL-R4, previously evolved for expression; wild type SEQ ID NO: 8) (Pleurotus eryngii, UniProt O94753). It is filed as biochemical. Particulars: 25° C. The method, then:
as §1, §2, §3, §4

Test [4] has as its system Pleurotus eryngii versatile peroxidase VPL, variant R4 (VPL-R4, previously evolved for expression; wild type SEQ ID NO: 8). It is filed as biochemical. As to the method:
as §1, §2, §3, §4

Setting [5] is: VA, RB5, optimum pH, 0.2 mM H2O2.
Setting [6] is: high efficiency site, optimum pH, 0.2 mM H2O2.
[7] abbreviates: low efficiency site, optimum pH, 0.2 mM H2O2.
Where [8] appears, read: high efficiency site, optimum pH, 1 mM H2O2.
Setting [9] is: low efficiency site, optimum pH, 1 mM H2O2.
Setting [10] is: H2O2 kinetics with 3 mM ABTS, optimum pH for ABTS.
Where [11] appears, read: H2O2 kinetics with 2 mM ABTS, optimum pH for ABTS.

Where two headings read alike, the source gives them in different places.

Chain of Pleurotus eryngii versatile peroxidase VPL, variant R4 (VPL-R4, previously evolved for expression; wild type SEQ ID NO: 8) (Pleurotus eryngii, UniProt O94753) (O94753 31-361, change not shown): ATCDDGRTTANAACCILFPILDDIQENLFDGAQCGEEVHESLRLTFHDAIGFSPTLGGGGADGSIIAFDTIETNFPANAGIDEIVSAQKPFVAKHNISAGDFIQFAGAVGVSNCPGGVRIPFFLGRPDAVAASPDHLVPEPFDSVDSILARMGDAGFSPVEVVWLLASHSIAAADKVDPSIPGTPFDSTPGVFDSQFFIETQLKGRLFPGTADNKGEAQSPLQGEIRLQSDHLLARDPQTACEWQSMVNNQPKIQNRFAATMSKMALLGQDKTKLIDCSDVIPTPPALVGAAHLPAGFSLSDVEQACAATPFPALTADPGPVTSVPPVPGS

`COc1ccc(CO)cc1OC` [VA, veratryl alcohol]: in test [1] (5H relative to the next best enzyme), the “affinity for VA relative to the next best enzyme” value is “more than an order of magnitude higher affinity”. Further, in test [2] (setting [5]), the Kcat is 5.5 ± 0.1 s⁻¹, the Kcat/KM came out at 550 ± 20 M⁻¹ s⁻¹ and the Km (commonly the concentration of substrate that gives half-maximal velocity) worked out at 10100 µM. Moreover, in test [3] (VA, RB5, optimum pH, 1 mM H2O2), the Kcat was determined as 5.4 ± 0.4 s⁻¹, the Kcat/KM came out at 0.7 ± 0.1 s⁻¹ mM⁻¹ and the Km was 7400 µM.

For `Nc1c(N=Nc2ccc(S(=O)(=O)CCOS(=O)(=O)O)cc2)c(S(=O)(=O)O)cc2cc(S(=O)(=O)O)c(N=Nc3ccc(S(=O)(=O)CCOS(=O)(=O)O)cc3)c(O)c12` [RB5, reactive black 5], in test [2] (setting [5]), the Kcat was 1.1 ± 0.1 s⁻¹, the Kcat/KM is 65000 ± 7200 M⁻¹ s⁻¹ and the Km was found to be 17.3 ± 1.7 µM. Moreover, in test [3] (VA, RB5, optimum pH, 1 mM H2O2), the Kcat worked out at 0.63 ± 0.02 s⁻¹, the Kcat/KM came to 487 ± 51 s⁻¹ mM⁻¹ and the Michaelis constant (Km) was 1.3 ± 0.1 µM.

For `CCn1c(=NN=c2sc3cc(S(=O)(=O)O)ccc3n2CC)sc2cc(S(=O)(=O)O)ccc21` [ABTS, 2,2′-azino-bis (3-ethylbenzothiazoline-6-sulfonic acid)], the Kcat came to 7.8 ± 0.3 s⁻¹ in test [2] (setting [6]), 28.2 ± 0.9 s⁻¹ in test [2] (setting [7]), 1.3 ± 0.1 s⁻¹ in test [3] (setting [8]) and 400 ± 21 s⁻¹ in test [3] (setting [9]). Also, the Kcat/KM in test [2] (setting [6]) was 1.55e+06 ± 260000 M⁻¹ s⁻¹; in test [2] (setting [7]), 35400 ± 4400 M⁻¹ s⁻¹; in test [3] (setting [8]), 3,300 ± 700 sec^−1 mM^−1; in test [3] (setting [9]), 405 ± 49 s⁻¹ mM⁻¹. Further, the Km came out at 5 ± 0.8 µM in test [2] (setting [6]), 795 ± 96 µM in test [2] (setting [7]), 0.39 ± 0.08 µM in test [3] (setting [8]) and 987 ± 107 µM in test [3] (setting [9]).

Consider `OO` [H2O2, Hydrogen peroxide], for which the “H2O2 affinity, fold lower than seen in 11H” value in test [1] (5H relative to 11H) was 5 fold; in test [2] (8H relative to 11H), 2 fold; in test [4] it was 12 fold. The Kcat in test [2] (setting [10]) is 12.1 ± 0.6 s⁻¹; in test [3] (setting [11]), 230 ± 9 s⁻¹. For the same molecule, the results for the Kcat/KM in test [2] (setting [10]) and in test [3] (setting [11]) were 135000 ± 21000 M⁻¹ s⁻¹ and 503 ± 61 s⁻¹ mM⁻¹, respectively. In addition, the Km in test [2] (setting [10]) came out at 89.7 ± 12.9 µM; in test [3] (setting [11]), 457 ± 53 µM.

`COc1cccc(OC)c1O` [DMP, 2,6-dimethoxyphenol]: in test [2] (8H relative to the other VPs (5H, 11H, R4)), the “heme-dependent affinity for DMP, fold higher relative to the other VPs” value is on record as “at least 70 fold”. Besides, the Kcat came to 2.2 ± 0.1 s⁻¹ in test [2] (setting [6]), 3.6 ± 0.1 s⁻¹ in test [2] (setting [7]), 0.74 ± 0.05 s⁻¹ in test [3] (setting [8]) and 132 ± 7 s⁻¹ in test [3] (setting [9]). Further, the Kcat/KM in test [2] (setting [6]) is 94600 ± 8200 M⁻¹ s⁻¹; in test [2] (setting [7]) it was 22100 ± 1600 M⁻¹ s⁻¹; in test [3] (setting [8]), 542 ± 113 s⁻¹ mM⁻¹; in test [3] (setting [9]), 8.2 ± 1.0 s⁻¹ mM⁻¹. In addition, the Km came out at 22.9 ± 1.8 µM in test [2] (setting [6]), 164 ± 12 µM in test [2] (setting [7]), 1.4 ± 0.3 µM in test [3] (setting [8]) and 16100 µM in test [3] (setting [9]).

Values taken from patent US12331324B2, “Versatile peroxidases and uses thereof” (Yeda Research and Development Co. Ltd., priority 2021, dated 2025).
